From patent publication US10383806B2, “Compositions including sesamin, methods of making and using the same in skin anti-aging and skin lightening applications” (Access Business Group International LLC, priority 2015, dated 2019)

How the values were obtained:
Type in all cases: cell-based
[1] = tested on: Melan-a cells; assay: Melanin inhibition assay in Melan-a cells; conditions: 4 days, concentrations of FIG. 5
Experimental: Melan-a cells seeded at a density of 5×10^4 cells per well were grown in a 24 well plate. Sesamin complex (S1) (at the concentrations indicated in the legend of FIG. 5) was dissolved in (DMSO) such that the final concentration of DMSO in the culture medium was maintained at 0.05%. Sesamin complex and Phenylthiourea (PTU) was added to the cells in triplicate and incubated for 2 days following which the cells were again treated with compounds supplemented with fresh medium. PTU at a concentration of 60 ug/ml was used as a positive inhibitor control in the melanin inhibition assay. Two days later, melanin was extracted and quantitated by normalizing with the protein content. After 4 days, melanin was extracted and cleared of the cell debris from each of the wells were dissolved by treating with 2N NaOH in 20% DMSO and incubating the samples for 60 min at 55° C. The melanin content in each sample was determined by measuring absorbance at 490 nm. Data were presented as % melanin content normalized to protein content in untreated wells compared to % melanin content extracted from samples.

[2] = molecular target: T1, Gal4-PPARγ-LBD fusion protein (Homo sapiens, UniProt P37231); assay: PPARγ activation luciferase reporter assay (Gal4-PPARγ-LBD, CHO-K1 cells); conditions: 18-24 hours, FIG. 6, n=2
T1 construct: The PPARγ-LBD (residues 203-477) was PCR amplified from human MGC: 5041; expressed in transfected cells
T1 sequence (P37231 203-477 isoform P37231-2): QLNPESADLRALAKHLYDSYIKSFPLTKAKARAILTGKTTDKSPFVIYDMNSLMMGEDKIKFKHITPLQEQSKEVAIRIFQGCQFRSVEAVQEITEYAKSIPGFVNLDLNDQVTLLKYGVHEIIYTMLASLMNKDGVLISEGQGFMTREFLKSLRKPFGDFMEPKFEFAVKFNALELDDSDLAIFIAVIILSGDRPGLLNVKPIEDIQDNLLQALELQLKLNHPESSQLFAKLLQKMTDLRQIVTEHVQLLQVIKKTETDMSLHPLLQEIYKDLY
Experimental: Troglitazone (positive control) was purchased from Sigma Corp. Sesamin sample was purchased from Virun Chemicals and a stock solution at a concentration of 100 mg/mL was prepared in 70% Dimethyl Sulfoxide (DMSO) and diluted to the indicated concentrations as shown in the figure. The final concentration of DMSO was maintained at 0.05% or lower. Stock solutions of troglitzone and sesamin samples were solubilized and diluted in DMSO prior to dilution in Dubelco's minimum essential media (DMEM) containing 0.5% Bovine serum Albumin (BSA) for testing. To study the activation of PPARγ in a luciferase reporter assay, a Gal4-PPARγ-ligand-binding domain (LBD) vector was created in a modified pF[…] (BIND) vector (Promega Inc). The PPARγ-LBD (residues 203-477) was PCR amplified from human MGC: 5041 (pSPORT6; Open Biosystems Inc.) and ligated into the pBIND3 vector forming a Gal4-PPARγ-LBD fusion protein. […] Luciferase was quantified using an activity assay from Biotium Inc. Briefly, at time of analysis, cells in white-walled 96-well plates were rinsed once using 50 μL of DPBS, then lysed with 20 μL of 1× passive lysis buffer. […] Reconstituted, room temperature D-luciferin was added (100 μL per well) and light emission was immediately read using an M-5 spectrophotometer (Molecular Devices, Inc.).

[3] = tested on: antioxidant response elements; assay: Anti-oxidant response element (ARE) luciferase reporter assay in stable HepG2 cells; conditions: 48 hours, FIG. 4
Text: Yet other embodiments relate to a method of decreasing a skin anti-inflammatory response comprising applying to the skin a composition in a cosmetically effective amount sufficient to decrease the skin anti-inflammatory response, wherein the composition comprises an amount of sesamin, individually or in combination with at least one other plant ingredient or plant extract from Pistacia (e.g., Pistacia lentiscus), Leontopodium (e.g., Leontopodium alpinium), Spirulina (e.g., Spirulina platensis), Oroxylum (e.g., Oroxylum indicum), Schizandra (e.g., Schizandra chinesis), Moringa (e.g., Moringa pterygosperma), Houttuynia (e.g., Houttuynia cordata), Isodon (e.g., Isodon japonicus), and Saxifraga (e.g., Saxifraga stolonifera), or mixtures thereof, and at least one pharmaceutically or cosmetically acceptable vehicle. […] Use of compositions that are capable of decreasing a skin anti-inflammatory response in the skin may result in improvement of the appearance of skin or at least one sign of aging in skin. Sesamin complex was dissolved in 70% DMSO and finally diluted […] in MEM containing Myrosinase (0.625 U/mL) and Ascorbic Acid (350 uM) and the final concentration of DMSO was 0.14%. […] The cells were grown in minimum essential media (MEM) with 10% fetal bovine serum and 150 ug/mL of hygromycin in a humidified atmosphere containing 5% CO2 at 37 C. For the assay, the cells were seeded at a density of 31,250 cells per well in a 96-well, white-walled, collagen coated plate. The following day, the media was removed and fresh growth media was added. After 24 hours, the cells were treated with test compounds for 48 hours (100 ug/mL, 50 ug/mL, 25 ug/mL, 12.5 ug/mL, and […]), lysed and the amount of luciferase produced was measured using a luciferase activity assay. Data were captured as relative luminescence units (RLUs) using an M5 Spectrophotometer (Molecular Devices, Inc).

In the case of `c1cc2c(cc1[C@H]1OC[C@H]3[C@@H]1CO[C@@H]3c1ccc3c(c1)OCO3)OCO2` [sesamin], the “melanin inhibition (% melanin content normalized to protein content)” value [1] was “dose dependent melanin inhibition”, the “activation of PPARγ (percent of control response)” value ([2]; sesamin at 70% (μg/mL)) was “dose-dependent activation of PPARγ” and the “activation of PPARγ (percent of control response)” value ([2]; sesamin at 90% (μg/mL)) was “dose-dependent activation of PPARγ”. For the same compound, the “anti-oxidant response (% Response)” value ([3]; 50 ug/mL, second highest response) was “activation of anti-oxidant pathways”, the “anti-oxidant response (% Response)” value ([3]; 100 ug/mL) was “highest anti-oxidant response” and the “anti-oxidant response (% Response, luciferase RLU normalized to untreated 0% and sulforophane 100%)” value ([3]; HepG2 ARE-luciferase cells, 6.75-100 ug/mL) was “dose-dependent anti-oxidant response”.
